Measured values reported in US20250049904A1, “IMMUNOSTIMULATORY COMPOSITIONS” (VICTORIA LINK LIMITED, priority 2021, published 2025).

System: Plasmodium berghei sporozoites
Assay: Mouse model of malaria infection: sporozoite challenge after vaccination
Type: in vivo
Experimental: FIG. 3 provides a graphical representation showing that LPX-mRNA vaccines containing CI058 induce functional liver TRM responses that protect from Plasmodium berghei infection. The function of TRM induced with LPX vaccines containing CI058 was tested in a mouse model of malaria infection, which is known to require liver TRM cells to provide protection against infection. Analysis was in C57BL/6 mice with LPX-mOVA versus LPX-mOVA-CI058 vaccines, with prior transfer of OT-I cells to enhance T cell precursor frequency, and challenge was with P. berghei sporozoites from a parasite strain modified to express OVA. (A) Groups of mice (n=12-15) were subject to vaccination only. Percentages of TRM, TEM and TCM OT-I cells in each treatment group determined in liver 30 days later, assessed as in FIG. 1. Black bars: TRM cells; white bars: TEM cells; grey bars: TCM cells. […] (D) Groups of mice were subject to vaccination followed by challenge with 200 OVA-expressing P. berghei sporozoites 30 days later, and parasitemia was measured 6, 7,8, 10 and 12 days after infection. […] Groups of mice (n=12-15) were subject to vaccination, and then percentages of TRM cells, TEM cells and TCM cells in each treatment group were evaluated in liver 30 days later by flow cytometry using MHC/peptide tetramers containing a defined CD8 T cell epitope from RLP6, using gating strategy in FIG. 2. […]

Question: With `CCCCCCCCCCCCCCCCCCCCCCCCCC(=O)N[C@@H](CO[C@H]1O[C@H](CSCC(=O)Nc2ccc(C3=C4C(C)=CC(C)=[N+]4[B-](F)(F)n4c(C)cc(C)c43)cc2)[C@H](O)[C@H](O)[C@H]1O)[C@H](O)[C@H](O)CCCCCCCCCCCCCC` [CI058, (2S,3S,4R)-1-(6-Deoxy-6-((2-((4-(5,5-difluoro-1,3,7,9-tetramethyl-5H-4λ4,5λ4-dipyrrolo[1,2-c:2′,1′-f][1,3,2]diazaborinin-10-yl)phenyl)amino)-2-oxoethyl)thio)-α-D-galactopyranosyloxy)-2-hexacosanoylamino-3,4-octadecandiol] as the compound, how does the “protection against sporozoite challenge” value (200 OVA-expressing P. berghei sporozoites 30 days after LPX-mOVA vaccination, OT-I transfer) read?
Answer: Its value is “provide protection against challenge with P. berghei sporozoites”.

Question: And the blood parasitemia (after challenge with OVA-expressing P. berghei sporozoites)?
Answer: Its blood parasitemia is “significantly limit blood parasitemia”.
